The subject of one data set is S. typhimurium TA1537. The experiment in a line: Ames test. The conditions noted are these: 7i 40 µg/plate. Background: The Ames test uses bacterial strains that need an amino acid and regain growth without it when mutated back.
A further data set has as its system S. typhimurium TA98. The experiment in a line: Ames test. The conditions noted are these: 7i 40 µg/plate.
Another data set relates to S. typhimurium TA100. The following applies: +S9; 7i 40 µg/plate; positive control 2-anthramine 0.5.
The test system of a further data set is S. typhimurium TA1535. The conditions noted are these: +S9; 7i 40 µg/plate; positive control 2-anthramine 0.5.
For data set [1], the system named is experimental autoimmune encephalomyelitis (EAE). Also noted: method as in PMID 25521311. The conditions noted are these: BD-1047 alone; cited from earlier work.
For a further data set, the system named is TK6 cells. The following applies: human.
The test system of data set [2] is dizocilpine-induced learning deficits. The experiment in a line: Dizocilpine-induced learning deficits, Y-maze spontaneous alternation. In kind it is in vivo, male Swiss mice. The conditions noted are these: 3 mg/kg i.p., alone. On the procedure: (§1) The activity of compound 7i was evaluated in regard to its ability to reverse dizocilpine-induced learning deficits. Two behavioral tests were performed by Amylgen (Montferrier-sur-Lez, France) on male Swiss mice (aged 6–9 weeks). All compounds (7i and controls) were intraperitoneally injected.
(§2) Animals were tested for spontaneous alternation performance in the Y-maze, an index of spatial working memory. Made of grey polyvinylchloride, the Y-maze has an arm which is 40 cm long, 13 cm high and 3 cm wide at the bottom and 10 cm wide at the top, converging at an equal angle. Each mouse was placed at the end of one arm and allowed to move freely through the maze during an 8-min session. The series of arm entries, including possible returns into the same arm, were checked visually. An alternation was defined as entries into all three arms on consecutive occasions. The number of maximum alternations was therefore the total number of arm entries minus two, and the percentage of alternation was calculated as: (actual alternations/maximum alternations) × 100. Parameters included the percentage of alternation (memory index) and the total number of arm entries (exploration index). Animals showing extreme behavior (alternation < 20% or >90% or number of arm entries < 10) are usually discarded from the calculations. […] Step-through latency (the latency in time spent to enter the dark compartment) and the number of vocalizations were recorded. […] Step-through latency was recorded up to 300 s. When either the mouse entered the dark compartment or 300 s had elapsed (they were therefore manually placed in it), escape latency (latency to exit from the dark compartment) was recorded with a value of up to 300 s. […]

Another data set concerns S1R–BiP complex. The experiment in a line: S1R-BiP dissociation assay in CHO cells (co-IP, ELISA). In kind it is cell-based. The conditions noted are these: for effect on S1R–BiP association: 10 µM, 30-min incubation. On the procedure:
The activity of compound 7i was evaluated in regard to its ability to dissociate the S1R–BiP complex. The S1R–BiP dissociation assay was performed by Amylgen (Montferrier-sur-Lez, France) as described in [13, 79]. Briefly, CHO cells were treated with test compounds for 30 min (37 °C). Crosslinking was performed with dithiobis succinimidyl propionate (DSP; Thermoscientific, Waltham, MA, USA). Lysis was performed after incubation for 15 min on ice. After centrifugation, supernatants were incubated overnight (4 °C) with the S1R antibody (Abcam, Cambridge, UK). Lysates were incubated with Sepharose Protein-A (Invitrogen). After the first centrifugation, the pellet was resuspended in radioimmunoprecipitation assay (RIPA) buffer. After a second centrifugation, the pellet was resuspended in 2× sample buffer/bMCE buffer. After the third centrifugation, supernatants were analyzed for BiP immunoreactivity (SEC343Mu ELISA, USCNK Life Sciences, Wuhan, China).

The subject of data set [3] is dizocilpine-induced learning deficits. The data set is described as follows: Dizocilpine-induced learning deficits, step-through passive avoidance. In kind it is in vivo, male Swiss mice. The following applies: 3 mg/kg i.p., alone. The method, then:
as §1, §2

Another data set relates to QT interval. The data set is described as follows: ECG QT interval analysis under isoflurane anesthesia. The following applies: for QT Interval Basal / QT Interval 3 min / QT Interval 6 min / QT Interval 10 min: in ms (unit assumed); for QT Interval 3 min: 3 min after injection; for QT Interval 6 min: 6 min after injection; for QT Interval 10 min: 10 min after injection.

[4] abbreviates: +S9, positive control 2-anthramine 0.5.

Description for QT interval: Four electrodes were inserted subcutaneously in the mouse limbs. Electrical signals were recorded with a Powerlab (Ad instruments) and analyzed with LabChart Pro software (v8.1.19).
Heart rate and PR, QRS and QT intervals were measured as described in Supplementary Figure S3.
Description for TK6 cells: The frequency of micronucleated (MN) cells was determined out of at least 2000 mononucleated cells.

As for `Nc1ccc2cc3ccccc3cc2c1` [2-anthramine, reference compound], in the data set with S. typhimurium TA1537 (setting [4]), the “Ames TA1537 +S9 (Mean revertants/well per title)” value was 27.6. For the same compound, in the data set with S. typhimurium TA98 (setting [4]), the “Ames TA98 +S9 (Mean revertants/well per title)” value amounted to 36.0. Also, the “Ames TA100 +S9 (Mean revertants/well per title)” value in the data set with S. typhimurium TA100 turned out to be 6.0. In addition, in the data set with S. typhimurium TA1535, the “Ames TA1535 +S9 (Mean revertants/well per title)” value is listed as 26.9.
Regarding `O=[N+]([O-])c1ccc2c(c1)Cc1ccccc1-2` [2-nitrofluorene, reference compound], the “Ames TA98 −S9 (Mean revertants/well per title)” value in the data set with S. typhimurium TA98 (−S9, positive control 2-nitrofluorene 0.5) came out at 23.1.
For the compound `Nc1c2ccccc2nc2ccccc12` [9-amino-acridine, reference compound], the “Ames TA1537 −S9 (Mean revertants/well per title)” value with S. typhimurium TA1537 (−S9, positive control 9-amino-acridine 1.56) amounted to 8.4.
In the case of `CN(C)CCN(C)CCc1ccc(Cl)c(Cl)c1` [BD-1047], in [1], the “effect on EAE development, alone” value is reported as “no significant effect”.
`O=P1(N(CCCl)CCCl)NCCCO1` (centres unmarked) [Cyclophosphamide]: in the data set with TK6 cells, the “MN/2 × 10^3 Cells” value turned out to be 35.5 and the “RS (%)” value turned out to be 88.3%.
Regarding `CCCN(CCC)CCc1ccc(OC)c(OCCc2ccccc2)c1` [NE-100, reference compound], the “effect by itself in Y-maze” value in data set [2] is “devoid of any effect”. Moreover, the “effect on S1R–BiP association” value with S1R–BiP complex is “no effect”. For the same compound, the “effect by itself in passive avoidance” value in data set [3] is “devoid of any effect”.
`O=C(OCCN1CCOCC1)C1(c2ccccc2)CCCCC1` [PRE-084, reference compound]: in the data set with S1R–BiP complex, the “effect on S1R–BiP association” value was “significantly causes the dissociation”. In the data set with S1R–BiP complex (co-treatment with NE-100 (10 µM)), the “effect on S1R–BiP dissociation in presence of NE-100” value is on record as “blocks”.
For `C=C[C@H]1C[N@@]2CC[C@H]1C[C@@H]2[C@@H](O)c1ccnc2ccc(OC)cc12` [Quinidine, reference compound], the “QT interval, conclusion” value with QT interval (10 mg/kg and 100 mg/kg i.p., 6 to 10 min after injection) is “dose-dependently prolonged the QT interval”. Also, the “QT Interval Basal” value in the data set on QT interval (10.0 mg/kg i.p. group) was 46 ± 2. For the same compound, in the data set on QT interval (10.0 mg/kg i.p.), the “QT Interval 3 min” value is listed as 50 ± 2, the “QT Interval 6 min” value stood at 64 ± 6 and the “QT Interval 10 min” value is on record as 65 ± 5. For the same compound, the “QT Interval Basal” value with QT interval (100.0 mg/kg i.p. group) was found to be 47 ± 4. Besides, in the data set on QT interval (100.0 mg/kg i.p.), the “QT Interval 3 min” value was 58 ± 3, the “QT Interval 6 min” value turned out to be 84 ± 7 and the “QT Interval 10 min” value amounted to 76 ± 4.

These data come from article PMC9569529, “Safe and Efficient Sigma1 Ligand: A Potential Drug Candidate for Multiple Sclerosis” (International Journal of Molecular Sciences, 2022).
